Reference: patent US10553890B2, “Aqueous redox flow batteries” (UCHICAGO ARGONNE, LLC, priority 2017, dated 2020)
“Also recorded” adds a separate entry of the source.

What was measured:
Format in all cases: physicochemical
[1] = Galvanostatic bulk electrolysis cycling; conditions: 1 mM in 3.0 M sulfuric acid, constant current 2.68 mA, cut-off 0.25 V to 0.85 V
Procedure: Galvanostatic bulk electrolysis: Galvanostatic cycling test was performed with a three-electrode bulk electrolysis electrochemical cell using 1470E SOLARTRON ANALYTICAL INSTRUMENT. Reticulated vitreous carbon was used as the working electrode, Ag/AgCl electrode was used as the reference electrode and coiled platinum enclosed in glass tubes with porous ceramic frit was used as the counter electrode.

[2] = Cyclic voltammetry (three-electrode cell, glassy carbon working electrode, Ag/AgCl reference); conditions: for observed oxidation potential: 1 mM in 0.5 M sulfuric acid, scan rate 20 mV/s, 0 V to 1 V; for redox stability (irreversible side reactions): 5 mV/s, cycling 0 V up to about 1.2 V; for oxidation potential: glassy carbon
Procedure: Cyclic voltammetry (CV) measurements: CV experiments were performed in custom-made three-electrode electrochemical cells with 3 mm diameter glassy carbon working electrode, a Ag/AgCl reference electrode and a platinum wire counter electrode using 1470E SOLARTRON ANALYTICAL INSTRUMENT.

[3] = Diffusion coefficient measurement using Randle-Sevcik equation; conditions: scan rates 10-100 mV/s
Procedure: Diffusion coefficient measurement: Diffusion coefficients were measured using Randle-Sevcik equation as shown below. In this equation, ip is the peak current, n represents the number of electrons transferred in the redox reaction, F is the Faraday's constant, A is the electrode area, c represents the concentration, v is the scan rate, D is the diffusion coefficient, R is the gas constant and T is the absolute temperature.

[4] = Solubility in aqueous acid; conditions: aqueous acid / acidic conditions
[5] = 5 mM in 1.0 M sulfuric acid, scan rate 5 mV/s

Row | SMILES | capacity and capacity retention [1] | observed oxidation potential [2] | redox stability (irreversible side reactions) ([2]; 5 mM in 1.0 M sulfuric acid) | oxidation potential [2, 5] | other results
1 | CN(C)c1ccc(O)cc1 [DMAP, 4-dimethylaminophenol] | very similar | 0.56 V (vs. AG/AgCl) | – | – | diffusion coefficient ([3]; 1 mM in 0.5 M sulfuric acid): 3.9×10^−6 cm^2/s
2 | NCCc1ccc(O)c(O)c1 [dopamine, 3,4-dihydroxyphenethylamine, reference compound] | – | – | – | – | diffusion coefficient ([3]; 50 mM in 0.5 M sulfuric acid): 2.43×10^−6 cm^2/s
3 | CC1(C)CC(N)CC(C)(C)N1[O] [4-NH2-TEMPO, 4-amino-2,2,6,6-tetramethylpiperidyl-1-oxyl] | – | – | irreversible reduction; also recorded: greater redox stability (i.e., less severe irreversible side reactions) than 4-OH-TEMPO | 0.92 V (vs. AG/AgCl) | solubility [4]: higher solubility than 4-OH-TEMPO; oxidation potential higher than 4-OH-TEMPO [2, 5]: 0.09 V
4 | CN(C)c1cc(S(=O)(=O)O)c(O)c(S(=O)(=O)O)c1 [DADPS, 5-(dimethylamino)-2-hydroxybenzene-1,3-disulfonic acid] | very similar | 0.66 V (vs. AG/AgCl) | – | – | potential in bulk electrolysis relative to unsubstituted aminophenol (DMAP) [1]: increased potential
5 | CC1(C)CC(O)CC(C)(C)N1[O] [4-OH-TEMPO, reference compound] | – | – | irreversible reduction | 0.83 V (vs. AG/AgCl) | –
